From patent US9187529B2 (priority 2011, dated 2015)
Values joined by “and” are separate entries in the source; they are usually repeats but may differ in a detail not shown here. Equal entries are not always repeated. Ends that are not written are not given here. Peptide text beside a SMILES is read from it.

What was measured:
[1] = rabbit, in vivo
S. aureus MN8 = format: cell-based, Staphylococcus aureus
[2] = system: TSST-1 production of S. aureus MN8; format: cell-based, Staphylococcus aureus

Molecule	signs of inflammation and vaginal irritation [1]	antimicrobial activity (S. aureus MN8)	TSST-1 % of No Peptide Control [2]	TSST-1 inhibition activity [2]	viable count (10^8 CFU/mL) (S. aureus MN8)	inhibition of MN8 growth (S. aureus MN8)	dose (as low as) giving complete inhibition of TSST-1 production [2]
C[C@H](NC(=O)[C@H](CO)NC(=O)[C@H](CCCCN)NC(=O)[C@H](Cc1c[nH]cn1)NC(=O)[C@H](CO)NC(=O)[C@H](CCCCN)NC(=O)[C@H](CCCCN)NC(=O)[C@H](CCCCN)NC(=O)[C@H](Cc1c[nH]cn1)NC(=O)[C@@H]1CCCN1C(=O)[C@H](CCCCN)NC(=O)[C@H](Cc1ccc(O)cc1)NC(=O)[C@H](CCCCN)NC(=O)[C@H](CCCCN)NC(=O)[C@H](CCCCN)NC(=O)[C@H](CCCCN)NC(=O)[C@@H]1CCCN1C(=O)[C@H](CCCCN)NC(=O)[C@@H](N)CO)C(=O)N[C@@H](CCCCN)C(=O)N[C@@H](CCCCN)C(=O)N[C@@H](CCCCN)C(=O)O [SP-1] (H-SKPKKKKYKPHKKKSHKSAKKK-OH)	No irritation or inflammation was observed	–	–	–	–	–	–
SFPTTATYFPAFDLSAGSAQVA [SP-3]	–	lacked antimicrobial	100 % of No Peptide Control	lacked antimicrobial and TSST-1 inhibition activity	–	–	–
SFPTTKTYFPHFDLSHGSAQVK [Hbg-1]	–	No antimicrobial activity was observed	–	–	20 and 22 and 17 and 21 and 19 and 25	–	–
SFPTTKTYFPHFDLSHGSAQVK-agarose beads (not fully specified (C-terminus)) [Hbg-3]	–	not antimicrobial	–	retained TSST-1 inhibition activity	21 and 22 and 16 and 20 and 23	–	–
STKPFFYFLHTQVKASPTSHDG [Hbg-2]	–	not antimicrobial	–	comparably active as Hbg-1	24 and 22 and 30 and 25 and 23	–	–
human neutrophil peptide-1 [HNP-1, reference compound]	–	no antimicrobial activity was observed	–	highly inhibitory of production of TSST-1	–	approximately 1 log	10^−3 μg/mL
human neutrophil peptide-2 (CYCRIPACIAGERRYGTCIYQGRLWAFCC; listed as Homo sapiens) [HNP-2, reference compound]	–	no antimicrobial activity was observed	–	highly inhibitory of production of TSST-1	–	approximately 1 log	10^−3 μg/mL
